In patent publication US7727731B2, “Potent, selective and non toxic c-kit inhibitors” (AB Science, priority 2001, dated 2010):

Columns and labels:
[1] = molecular target: c-kit wild (Mus musculus, UniProt P05532); experiment: c-kit phosphorylation after immunoprecipitation, c-kit wild; format: cell-based
Procedure: (§1) First step: cellular proliferation to select molecules which are able to slowdown or stop cellular growth induced by c-kit activation. Here, SCF activated c-kit is used. Then, the effect of these molecules is analyzed by biochemistry techniques (immuno precipitations and western-blots), so that to determine if the inhibitor acts directly on the receptor c-kit or on other proteins, which are mediators of Kit signals. In a second step, a subset of molecules identified is selected in a cellular test on IL-3 dependant cells cultured in presence of IL-3. molecules that are not toxic are identified as potent specific c-kit inhibitors for a use in therapy.
(§2) The first step of c-kit activation consists of receptor phosphorylation on tyrosine residues. Thus, the phosphorylation state is a measure of receptor activation. By using specific antibodies, c-kit has been isolated by immunoprecipitation and c-kit phosphorylation has been determined using common procedures.

[2] = molecular target: T1, SCF activated c-kit wild (Mus musculus, UniProt P05532); experiment: Proliferation test, Ba/F3 Kit cells with SCF; format: cell-based, murine; conditions: doses inferior to toxicity level (<10 μM)
T1 construct: expressed in transfected cells; host or cells: Ba/F3 (murine, IL-3 dependent)
Procedure: as §1
(§3) Two types of cell lines carrying wild or mutated forms of c-kit are available lines derived from mastocytomes and the Ba/F3 cell model (cells depending on IL-3). In the Ba/F3 cells, the expression of c-kit removes the dependence vis-a-vis IL-3. Consequently, cDNA of wild or mutated murine c-kit has been introduced and these cells proliferate either in presence of SCF in case of c-kit wild or in absence of any growth factor in case of activated mutant c-kit.
Preparation of cell lines • Ba/F3-Kit: Ba/F3 cells in which Kit gene, mutated or wild, has been introduced. They proliferate either in presence of Kit ligand (SCF) or in presence of IL-3. […]

[3] = test system: c-kit carrying one of the juxtamembrane mutations (Δ27); experiment: Proliferation test, Ba/F3 Δ27 cells; format: cell-based, murine; conditions: doses inferior to toxicity level (<10 μM)
Excerpt: as §3
(§4) Juxtamembrane Mutations • Ba/F3-KitΔ27 (transfected juxtamembrane mutation—identified at the Laboratory) • Ba/F3-KitG559 (transfected juxtamembrane mutation) • FMA3 (deletion 7aa. juxtamembrane identified in a mouse mastocytome)
Cells expressing c-kit carrying one of the juxtamembrane mutations (Δ27) were also used as a control.
(§5) Table set up according to CPM (Counts Per Minutes) percentage obtained after proliferation in absence of inhibitors as 100% (% CPM>80=−−/50<% CPM<80=−/20<% CPM <50=+/5<% CPM<20=+/%-CPM<5=++). All experiments were done in triplicate.

[4] = molecular target: T2, c-kit carrying the 814 mutation (Mus musculus, UniProt P05532, D818V); experiment: Proliferation test, IC2 D814V cells; format: cell-based, murine; conditions: doses inferior to toxicity level (<10 μM)
T2 construct: expressed in transfected cells; host or cells: IC2 murine mast cell line
Procedure: We have tested 37 compounds that are indolinone derivatives in different cell lines and successive screening to select interesting inhibitors. • Method: select the compounds which are effectively c-kit inhibitors (Table 1) Each compound has been tested at a high dose (10 μM) on cell expressing • c-kit carrying the 814 mutation • SCF activated c-kit wild • control cells cultivated in IL-3.
The effect of the 21 inhibitors has been tested at decreasing concentrations (10-10^−1-10^−2 μM) in order to reveal compounds that are able at 1 μM to inhibit proliferation of the IC2 D814V line while preserving response to another stimulus (IL-3, toxicity control).
The nine compounds selected have been tested at narrower doses: between 0.1 and 1 μM. At this stage, the three most efficient compounds at lower doses have been selected (≦0.6 μM): 11, 14 and 35.
as §5

[5] = test system: c-kit bearing juxtamembrane mutations; experiment: c-kit phosphorylation after immunoprecipitation, juxtamembrane mutants; format: cell-based
Procedure: as §1, §2

[6] = molecular target: T3, FMA3 (deletion 7aa. juxtamembrane) (Mus musculus, UniProt P05532, DEL577-583); experiment: Proliferation test, FMA3 cells; format: cell-based; conditions: doses inferior to toxicity level (<10 μM)
T3 construct: endogenous in cells; host or cells: FMA3 mouse mastocytoma cells
Excerpt: as §4

[7] = test system: mutant in a human mast cell leukemia cell line (HMC-1, expressing a juxtamembrane mutation); conditions: cited from earlier work
[8] = test system: 814 mutant c-kit; experiment: c-kit phosphorylation after immunoprecipitation, 814 mutant; format: cell-based
Procedure: as §1, §2

T2 sequence (P05532 25-975 isoform P05532-2 D814V limits assumed): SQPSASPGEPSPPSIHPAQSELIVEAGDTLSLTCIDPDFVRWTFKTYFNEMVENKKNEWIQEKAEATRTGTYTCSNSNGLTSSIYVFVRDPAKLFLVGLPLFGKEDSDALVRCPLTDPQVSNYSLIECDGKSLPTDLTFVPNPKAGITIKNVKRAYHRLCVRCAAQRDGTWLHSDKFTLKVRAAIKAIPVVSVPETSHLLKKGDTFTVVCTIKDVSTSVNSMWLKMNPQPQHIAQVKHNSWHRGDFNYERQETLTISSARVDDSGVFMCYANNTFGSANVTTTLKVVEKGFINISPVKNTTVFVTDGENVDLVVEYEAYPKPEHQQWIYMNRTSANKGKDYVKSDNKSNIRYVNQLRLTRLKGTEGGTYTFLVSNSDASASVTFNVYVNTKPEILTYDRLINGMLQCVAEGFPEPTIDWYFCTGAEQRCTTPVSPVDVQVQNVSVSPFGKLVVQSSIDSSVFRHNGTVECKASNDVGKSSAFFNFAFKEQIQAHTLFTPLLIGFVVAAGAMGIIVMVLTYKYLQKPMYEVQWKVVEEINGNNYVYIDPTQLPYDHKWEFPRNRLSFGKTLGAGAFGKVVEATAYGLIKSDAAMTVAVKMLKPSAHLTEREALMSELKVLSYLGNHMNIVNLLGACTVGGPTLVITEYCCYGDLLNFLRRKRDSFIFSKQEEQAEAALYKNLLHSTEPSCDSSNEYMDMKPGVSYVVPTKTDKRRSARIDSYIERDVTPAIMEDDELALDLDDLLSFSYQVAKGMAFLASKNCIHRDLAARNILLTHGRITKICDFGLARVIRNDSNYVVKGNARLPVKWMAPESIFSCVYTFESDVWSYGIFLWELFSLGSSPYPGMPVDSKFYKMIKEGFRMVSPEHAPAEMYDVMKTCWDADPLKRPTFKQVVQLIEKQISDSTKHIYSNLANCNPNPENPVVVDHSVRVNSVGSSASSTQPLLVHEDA
Sequence of c-kit wild (P05532 25-975 isoform P05532-2 limits assumed): as the sequence (P05532 25-975 isoform P05532-2 D814V limits assumed) above, with V790D counted along it
T1 sequence (P05532 25-975 isoform P05532-2 limits assumed): as the sequence (P05532 25-975 isoform P05532-2 D814V limits assumed) above, with V790D counted along it
T3 sequence (P05532 with tags, fused parts or gaps isoform P05532-2 DEL573-579): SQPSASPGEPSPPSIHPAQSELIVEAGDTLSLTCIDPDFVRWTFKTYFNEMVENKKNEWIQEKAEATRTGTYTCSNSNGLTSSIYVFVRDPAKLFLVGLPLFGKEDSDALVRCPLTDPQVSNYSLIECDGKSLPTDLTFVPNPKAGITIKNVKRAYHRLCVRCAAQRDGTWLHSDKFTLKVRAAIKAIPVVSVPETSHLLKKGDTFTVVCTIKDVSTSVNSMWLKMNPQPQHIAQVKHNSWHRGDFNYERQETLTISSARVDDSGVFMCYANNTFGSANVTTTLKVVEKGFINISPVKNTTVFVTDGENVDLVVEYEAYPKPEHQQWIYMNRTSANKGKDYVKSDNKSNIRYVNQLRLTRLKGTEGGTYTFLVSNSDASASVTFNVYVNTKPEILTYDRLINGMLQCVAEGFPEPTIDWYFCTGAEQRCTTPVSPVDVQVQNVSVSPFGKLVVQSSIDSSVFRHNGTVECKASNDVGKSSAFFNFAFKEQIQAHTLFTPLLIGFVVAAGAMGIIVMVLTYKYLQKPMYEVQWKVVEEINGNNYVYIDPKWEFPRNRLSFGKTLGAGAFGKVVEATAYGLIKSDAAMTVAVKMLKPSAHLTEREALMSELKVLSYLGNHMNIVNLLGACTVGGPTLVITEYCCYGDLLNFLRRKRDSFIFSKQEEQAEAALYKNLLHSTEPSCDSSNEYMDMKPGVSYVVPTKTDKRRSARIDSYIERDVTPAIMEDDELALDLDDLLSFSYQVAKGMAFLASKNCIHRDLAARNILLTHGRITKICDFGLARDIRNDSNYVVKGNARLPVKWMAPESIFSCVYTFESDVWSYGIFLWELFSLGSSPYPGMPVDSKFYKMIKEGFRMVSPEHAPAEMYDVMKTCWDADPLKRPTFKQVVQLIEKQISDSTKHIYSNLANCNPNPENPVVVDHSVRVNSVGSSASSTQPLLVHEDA
Sequence of c-kit bearing juxtamembrane mutations (P05532 592-939 limits assumed, change not shown): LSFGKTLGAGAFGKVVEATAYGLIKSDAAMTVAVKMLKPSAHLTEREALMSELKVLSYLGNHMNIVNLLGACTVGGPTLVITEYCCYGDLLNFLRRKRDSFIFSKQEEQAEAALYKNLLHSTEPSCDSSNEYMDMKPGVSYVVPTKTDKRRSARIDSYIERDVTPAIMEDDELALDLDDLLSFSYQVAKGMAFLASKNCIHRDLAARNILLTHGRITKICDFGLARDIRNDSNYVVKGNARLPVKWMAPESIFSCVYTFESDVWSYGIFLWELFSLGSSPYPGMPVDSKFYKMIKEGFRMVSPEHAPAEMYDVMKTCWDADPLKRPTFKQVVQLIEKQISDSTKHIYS

STI 571
Phosphorylation of c-kit wild [1]: considerably reduces the phosphorylation
Effect on proliferation depending on c-kit wild [2]: inhibits totally the proliferation
Effect on proliferation, juxtamembrane mutation Δ27 [3]: inhibits totally the proliferation
Effect on proliferation of cells carrying 814 mutation, IC2 [4]: not the proliferation of cells carrying 814 mutation
Phosphorylation of c-kit bearing juxtamembrane mutations [5]: considerably reduces the phosphorylation
Effect on proliferation, juxtamembrane mutation FMA3 [6]: inhibits totally the proliferation
Inhibitory effect on kinase activity of HMC-1 mutant compared with ligand-dependent activation of the wild-type receptor [7]: more potent inhibitory effect
Phosphorylation of the 814 mutant c-kit [8]: is not reduced
